Where a name gives a salt, the structure may show the parent alone. Marks after values point to notes of the source that are not given here. Ends that are not written are not given here. A value given as a limit tells only on which side of the number the result lay.

In test [1] the target is T1, NPFF1-R (Homo sapiens, UniProt Q9GZQ6). Nature of the test: [35S]GTPγS binding assay, membranes of NPFF1-R expressing CHO cells. It is filed as biochemical. The settings on record: tested at 10 μM; % maximal activation.
T1 sequence (Q9GZQ6 whole entry): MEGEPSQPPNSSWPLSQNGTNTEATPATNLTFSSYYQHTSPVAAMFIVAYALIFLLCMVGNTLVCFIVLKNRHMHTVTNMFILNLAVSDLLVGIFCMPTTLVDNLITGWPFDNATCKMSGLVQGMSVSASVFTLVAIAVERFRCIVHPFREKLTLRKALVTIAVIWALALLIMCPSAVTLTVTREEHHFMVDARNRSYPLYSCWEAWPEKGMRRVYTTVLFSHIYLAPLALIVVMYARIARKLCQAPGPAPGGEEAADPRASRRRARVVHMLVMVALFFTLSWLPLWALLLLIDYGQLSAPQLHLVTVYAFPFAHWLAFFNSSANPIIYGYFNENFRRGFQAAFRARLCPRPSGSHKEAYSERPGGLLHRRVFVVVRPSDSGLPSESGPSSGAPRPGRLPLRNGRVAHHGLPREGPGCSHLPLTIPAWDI
For test [2], the target named is T2, NPFF2-R (Homo sapiens, UniProt Q9Y5X5). Put plainly: [35S]GTPγS binding assay, membranes of NPFF2-R expressing CHO cells. The note with it: tested at 10 μM; % maximal activation. It is filed as biochemical. In general terms: GTPγS resists hydrolysis and so accumulates on activated G proteins.
T2 sequence (Q9Y5X5 whole entry): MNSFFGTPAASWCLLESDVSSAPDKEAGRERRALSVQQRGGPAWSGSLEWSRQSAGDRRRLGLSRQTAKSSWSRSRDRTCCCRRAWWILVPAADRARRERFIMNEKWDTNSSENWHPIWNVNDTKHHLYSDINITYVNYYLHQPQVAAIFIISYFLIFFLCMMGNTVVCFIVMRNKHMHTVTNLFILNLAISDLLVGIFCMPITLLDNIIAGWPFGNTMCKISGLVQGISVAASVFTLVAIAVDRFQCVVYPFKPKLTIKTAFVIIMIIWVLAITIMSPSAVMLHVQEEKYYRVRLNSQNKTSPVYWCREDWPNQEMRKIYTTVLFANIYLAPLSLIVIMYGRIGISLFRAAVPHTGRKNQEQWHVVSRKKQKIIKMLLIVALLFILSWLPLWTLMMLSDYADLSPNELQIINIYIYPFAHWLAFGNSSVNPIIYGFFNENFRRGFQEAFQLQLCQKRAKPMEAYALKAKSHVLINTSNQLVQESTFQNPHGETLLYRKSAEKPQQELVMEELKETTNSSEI
Test [3] has as its target T1, NPFF1-R. It is filed as binding.
In test [4] the target is T1, NPFF1-R. It is filed as cell-based.
The target of test [5] is T2, NPFF2-R. It is filed as binding.
Test [6] concerns the target T2, NPFF2-R. It is filed as cell-based.
In test [7] the target is T2, NPFF2-R. It is filed as binding. This is another data set of the same source.
The target in test [8] is T2, NPFF2-R. The settings on record: cited from earlier work; for selectivity for the hNPFF2 subtype: radioligand competition binding assays. Background: Loss of bound radioactivity is the signal in a displacement assay; it reports binding, not function.
For test [9], the target named is membrane of rat spinal cord. The note with it: read-out: Ki in the membrane of rat spinal cord; cited from earlier work.
Test [10] concerns the target T1, NPFF1-R. The settings on record: read-out: hNPFF1-R Ki; radioligand displacement assays; cited from earlier work.
In test [11] the target is T1, NPFF1-R. The settings on record: read-out: cAMP hNPFF1-R antagonist activity EC50; data taken from ref 15; cited from earlier work.

Take `N=C(N)NCCC[C@H](N)C(=O)NCC1(Nc2ccccc2)CCN(Cc2ccccc2)CC1` [7b, 2-Amino-N-((1-benzyl-4-(phenylamino)piperidin-4-yl)methyl)-5-guanidinopentanamide Hydrochloride]: the “% stimulation (increase) of [35S]GTPγS binding at NPFF1-R” value on NPFF1-R [1] is listed as 36 ^d %. In addition, the “% stimulation (increase) of [35S]GTPγS binding at NPFF2-R” value at NPFF2-R [2] is on record as 184 ^d %.
Regarding `N=C(N)NCC(=O)NCC1(Nc2cccc3ccccc23)CCN(Cc2ccccc2)CC1` [30a, N-((1-Benzyl-4-(naphthalen-1-ylamino)piperidin-4-yl)methyl)-2-guanidinoacetamide Tritriflate], the “ratio, preference for NPFF1” value at NPFF1-R [3] is listed as 3.3-fold (NPFF1). Moreover, the “Highest concentration showing no agonist activity when tested alone, hNPFF1-R” value at NPFF1-R [4] was above 10K ^f.
Take `COc1cc(NC2(CNC(=O)CNC(=N)N)CCN(Cc3ccccc3)CC2)cc(OC)c1` [30b, N-((1-Benzyl-4-(3,5-dimethoxyphenylamino)piperidin-4-yl)methyl)-2-guanidinoacetamide Tritriflate]: the “ratio, preference for NPFF1” value on NPFF1-R [3] was 8.7-fold (NPFF1). The “Highest concentration showing no agonist activity when tested alone, hNPFF1-R” value at NPFF1-R [4] was above 10K ^f.
As for `COc1cccc(NC2(CNC(=O)CNC(=N)N)CCN(Cc3ccccc3)CC2)c1` [30c, N-((1-Benzyl-4-(3-methoxyphenylamino)piperidin-4-yl)methyl)-2-guanidinoacetamide Tritriflate], the “ratio, preference for NPFF1” value at NPFF1-R [3] is on record as 4.4-fold (NPFF1).
Same read-out and setting: with `N=C(N)NCC(=O)NCC1(Nc2ccc(Cl)c(Cl)c2)CCN(Cc2ccccc2)CC1` [30d, N-((1-Benzyl-4-(3,4-dichlorophenylamino)piperidin-4-yl)methyl)-2-guanidinoacetamide Tritriflate] the figure was 2.1-fold (NPFF1).
Consider `N=C(N)NCC(=O)NCC1(Nc2ccccc2)CCN(CC2CCCCC2)CC1` [49b, N-((1-(Cyclohexylmethyl)-4-(phenylamino)piperidin-4-yl)methyl)-2-guanidinoacetamide Tritriflate], for which the “fold loss of affinity at NPFF1-R relative to lead 21” value at NPFF1-R [3] turned out to be 5 fold. Also, the “fold gain of affinity at NPFF2-R compared with lead 21” value (“fold gain of affinity at NPFF2-R” below) at NPFF2-R [5] was 1.2–3.1 fold.
For `N=C(N)NCC(=O)NCC1(Nc2ccccc2)CCN(CCc2ccccc2)CC1` [49c, 2-Guanidino-N-((1-phenethyl-4-(phenylamino)piperidin-4-yl)methyl)acetamide Tritriflate], the “fold gain of affinity at NPFF2-R” value on NPFF2-R [5] is given as 1.2–3.1 fold.
On the same count and under the same terms, with `N=C(N)NCC(=O)NCC1(Nc2ccccc2)CCN(Cc2cccc3ccccc23)CC1` [49d, 2-Guanidino-N-((1-(naphthalen-1-ylmethyl)-4-(phenylamino)piperidin-4-yl)methyl)acetamide Tritriflate] the figure was 1.2–3.1 fold.
Take `N=C(N)NCC(=O)NCC1(Nc2ccccc2)CCN(Cc2ccc3ccccc3c2)CC1` [49e, 2-Guanidino-N-((1-(naphthalen-2-ylmethyl)-4-(phenylamino)piperidin-4-yl)methyl)acetamide Tritriflate]: the “fold gain of affinity at NPFF1-R compared with lead 21” value (“fold gain of affinity at NPFF1-R” for short) on NPFF1-R [3] is listed as 2.3–2.8 fold.
For the compound `N=C(N)NCC(=O)NCC1(Nc2ccccc2)CCN(Cc2ccc(Br)cc2)CC1` [49f, N-((1-(4-Bromobenzyl)-4-(phenylamino)piperidin-4-yl)methyl)-2-guanidinoacetamide Tritriflate], the “fold gain of affinity at NPFF1-R” value on NPFF1-R [3] is 2.3–2.8 fold.
`N=C(N)NCC(=O)NCC1(Cc2cccc3ccccc23)CCN(Cc2ccccc2)CC1` [53a, N-((1-Benzyl-4-(naphthalen-1-ylmethyl)piperidin-4-yl)methyl)-2-guanidinoacetamide Tritriflate]: the “Activity alone at NPFF2-R” value on NPFF2-R [6] is “low activity”. At NPFF2-R [5], the “fold gain of affinity at NPFF2-R” value turned out to be 14 fold and the “fold increase in affinity at NPFF2-R relative to lead 42” value is 2.8 fold. Further, at NPFF1-R [4], the “Activity alone at NPFF1-R” value is “low activity”.
Take `N=C(N)NCC(=O)NCC1(Cc2ccc(Cl)c(Cl)c2)CCN(Cc2ccccc2)CC1` [53b, N-((1-Benzyl-4-(3,4-dichlorobenzyl)piperidin-4-yl)methyl)-2-guanidinoacetamide Ditriflate]: the “fold loss of affinity at NPFF2-R relative to 53a” value on NPFF2-R [5] was 2.7 fold.
For the compound `N=C(N)NCC(=O)NCC1(Cc2ccc3ccccc3c2)CCN(Cc2ccccc2)CC1` [53c, N-((1-Benzyl-4-(naphthalen-2-ylmethyl)piperidin-4-yl)methyl)-2-guanidinoacetamide Ditriflate], at NPFF2-R [5], the “fold loss of affinity at NPFF2-R relative to 53a” value was found to be 6.8 fold and the “ratio, preference for NPFF2” value is on record as 1.5-fold (NPFF2).
In the case of `N=C(N)NCC(=O)NCC1(Cc2ccc(-c3ccccc3)cc2)CCN(Cc2ccccc2)CC1` [53d, N-((1-Benzyl-4-(biphenyl-4-ylmethyl)piperidin-4-yl)methyl)-2-guanidinoacetamide Ditriflate], at NPFF1-R [3], the “ratio, preference for NPFF1” value was 3-fold (NPFF1). Moreover, at NPFF2-R [5], the “fold loss of affinity at NPFF2-R relative to 53a” value came to 30 fold.
For `N=C(N)NCCC[C@H](N)C(=O)NCC1CCN(Cc2ccccc2)CC1` [compound 15, 2-Amino-N-((1-benzylpiperidin-4-yl)methyl)-5-guanidinopentanamide Hydrochloride], the “fold loss of affinity at NPFF2-R relative to 7b” value on NPFF2-R [7] was found to be 7 fold.
Take `N=C(N)NCC(=O)NCC1(Nc2ccccc2)CCN(Cc2ccccc2)CC1` [compound 21, N-((1-Benzyl-4-(phenylamino)piperidin-4-yl)methyl)-2-guanidinoacetamide tritriflate]: at NPFF2-R [6], the “% inhibition of forskolin-stimulated cAMP accumulation (cyclase) at NPFF2-R” value is on record as 20–25 ^e % and the “Agonist activity alone at NPFF2-R” value is recorded as “weak partial agonist activity”. Also, the “fold increase in affinity at NPFF1-R compared with lead 7b” value at NPFF1-R [3] was found to be 1.5 fold. Also, the “fold increase in affinity at NPFF2-R compared with lead 7b” value on NPFF2-R [5] was 2.6 fold. Besides, the “Agonist activity alone at NPFF1-R” value on NPFF1-R [4] is on record as “weak partial agonist activity”.
For the compound `N=C(N)NCC(=O)NCC1(c2ccccc2)CCN(Cc2ccccc2)CC1` [compound 34, N-((1-Benzyl-4-phenylpiperidin-4-yl)methyl)-2-guanidinoacetamide Ditriflate], on NPFF1-R [3], the “fold loss of affinity at NPFF1-R relative to lead 21” value is recorded as 1.6 fold and the “ratio, preference for NPFF1” value is listed as 6.9-fold (NPFF1). On NPFF2-R [5], the “fold loss of affinity at NPFF2-R relative to lead 21” value amounted to 8.7 fold.
For the compound `N=C(N)NCC(=O)NCC1(Cc2ccccc2)CCN(Cc2ccccc2)CC1` [compound 42, N-((1,4-Dibenzylpiperidin-4-yl)methyl)-2-guanidinoacetamide Ditriflate], on NPFF2-R [6], the “Highest concentration showing no agonist activity when tested alone, hNPFF2-R” value was found to be 1K ^f. Besides, on NPFF2-R [5], the “fold gain of affinity at NPFF2-R” value was determined as 5 fold.
Turning to `N=C(N)NCC(=O)NCC1(CCc2ccccc2)CCN(Cc2ccccc2)CC1` [compound 43, N-((1-Benzyl-4-phenethylpiperidin-4-yl)methyl)-2-guanidinoacetamide Ditriflate], the “ratio, preference for NPFF1” value on NPFF1-R [3] is 3-fold (NPFF1). Moreover, the “fold loss of affinity at NPFF2-R relative to 42” value at NPFF2-R [5] is given as 5.5 fold.
As to `N=C(N)NCCNC(=O)C1(Nc2ccccc2)CCN(Cc2ccccc2)CC1` [compound 46, 1-Benzyl-N-(2-guanidinoethyl)-4-(phenylamino)piperidine-4-carboxamide Tritriflate], the “fold gain of affinity at NPFF1-R” value at NPFF1-R [3] was found to be 4 fold.
As to AGEGLSSPFWSLAAPQRFa [hNPAF], the “selectivity for the hNPFF2 subtype” value in the test with NPFF2-R [8] is reported as 10.1 fold.
With FLFQPQRFa [NPFF], in test [9], the Ki is 0.21 nM.
Regarding “SLNFEELKDWGPKNVIKMSTPAVNKMPHSFANLPLRFa [hNPSF]”, the “selectivity for the hNPFF2 subtype” value at NPFF2-R [8] is given as 1.2 fold.
On to “SQAFLFQPQRFa (SQAFLFQPQRF-NH2; UniProt O15130 66-76, looked up) [hNPFF]”, for which the “selectivity for the hNPFF2 subtype” value in the test with NPFF2-R [8] is reported as 10.7 fold.
n-adamantanecarbonyl-Arg-Phe-NH2 [RF9]: the Ki is 58 ± 5 nM on NPFF1-R [10] and 75 ± 9 nM on NPFF2-R [8] (read-out: hNPFF2-R Ki, radioligand displacement assays). In addition, the EC50 at NPFF1-R [11] is 4700 ± 1200 nM. Also, the “cAMP hNPFF1-R Emax, %” value at NPFF1-R [4] is 79 ± 5 ^c %.

As a reminder, the Ki is a measure of affinity in units of concentration, obtained from inhibition or displacement. For orientation: EC50 means the concentration that produces a half-maximal response.

These data come from paper PMC4234442 (Journal of Medicinal Chemistry, 2014).
